In patent publication US20200261391A1, “METHODS OF REDUCING THE RISK OF A CARDIOVASCULAR EVENT IN A STATIN-TREATED SUBJECT BY INCREASING SERUM AND PLASMA EPA AND DPA LEVELS” (Amarin Pharmaceuticals Ireland Limited, priority 2019, published 2020):

System: TG, non-HDL-C, LDL-C, HDL-C, apo B, hsCRP
Test: REDUCE-IT trial: fasting lipid, lipoprotein and inflammatory marker data over time
Assay type: in vivo, human
Method: Fasting Lipid Profile: The fasting lipid panel included: TG, TC, LDL-C, HDL-C, non-HDL-C, and VLDL-C. At all visits, LDL-C was calculated using the Friedewald equation. At Visit 1 and Visit 1.1 direct LDL-C were used if at the same visit TG>400 mg/dL (4.52 mmol/L). These LDL-C values were used for the evaluation of the LDL-C inclusion criterion (LDL-C qualifying measurements for randomization) and for the assessment of changes in the statin therapy when LDL-C was not at goal. […] In addition, irrespective of the TG levels, at Visit 2 (0 Months of Follow-up, baseline) and at Visit 4 (12 Months of Follow-up), LDL-C were measured by preparative ultracentrifugation. These preparative ultracentrifugation LDL-C measurements were used in the statistical analysis including the calculation of the percent change from baseline (1 year versus baseline). Hopkins LDL-C was calculated for each visit.
Biomarkers Assays: The biomarker assays included: hsCRP, Apo B and hsTnT.
The fasting lipid panel was tested at Screening (Visit 1 or Visit 1.1), Randomization visit (Visit 2; Day 0), Visit 3 (Day 120; ˜4 Months) and all other follow-up visits including the last visit. For change from baseline to 1 year preparative ultracentrifugation measurements for LDL-C were analyzed, unless this value was missing. If the LDL-C preparative ultracentrifugation values were missing, then another LDL-C value was used, with prioritization of values obtained from LDL-C Direct measurements, followed by LDL-C derived by the Friedewald calculation (only for subjects with TG<400 mg/dL), and finally LDL-C derived using the calculation published by Hopkins University investigators (Martin S S, Blaha M J, Elshazly M B, et al. Comparison of a novel method vs the Friedewald equation for estimating low-density lipoprotein cholesterol levels from the standard lipid profile. JAMA. 2013; 310:2061-8.). In addition, change from baseline to day 120 in LDL-C utilizing Friedewald's and Hopkins methods was analyzed, using the arithmetic mean of LDL-C obtained at Visit 2 (Day 0) and the preceding Visit 1 (or Visit 1.1). If one of these values was missing, the single available LDL-C value was used. LDL-C according to Hopkins was calculated at each visit.
The randomization visit was considered Baseline. If a baseline value was not available from the randomization visit, then the latest screening value was used. For measurements of lipids, lipoproteins and inflammatory markers, the change and the percent change were summarized at each visit. Since these biomarkers are typically not normally distributed, the Wilcoxon rank-sum test was used for treatment comparisons of the percent change from baseline, and medians and quartiles were provided for each treatment group. The medians of the differences between the treatment groups and 95% CIs were estimated with the Hodges-Lehmann method. In addition, shift-tables were generated as appropriate.

CC/C=C\C/C=C\C/C=C\C/C=C\C/C=C\CCCC(=O)OCC [icosapent ethyl, eicosapentaenoic acid ethyl ester]
Apo B Median Observed Value (Year 2): 80.0 mg/dL | HDL-C Median % Change from Baseline (Year 2): 0.0% | HDL-C Median Absolute Change from Baseline (Year 2): 0.0 mg/dL | HDL-C Median Observed Value (Year 2): 40.0 mg/dL | LDL-C Hopkins Median % Change from Baseline (Year 2): −0.2% | LDL-C Hopkins Median Absolute Change from Baseline (Year 2): -0.1 mg/dL | LDL-C Hopkins Median Observed Value (Year 2): 85.5 mg/dL | Log hsCRP Median % Change from Baseline (Year 2): −21.8% | Log hsCRP Median Absolute Change from Baseline (Year 2): −0.1 mg/L | Log hsCRP Median Observed Value (Year 2): 0.6 mg/L | Non-HDL-C Median % Change from Baseline (Year 2): −3.1% | Non-HDL-C Median Absolute Change from Baseline (Year 2): -3.5 mg/dL | Non-HDL-C Median Observed Value (Year 2): 113.0 mg/dL | Triglycerides Median % Change from Baseline (Year 2): −18.9% | Triglycerides Median Absolute Change from Baseline (Year 2): -38.5 mg/dL | Triglycerides Median Observed Value (Year 2): 173.0 mg/dL | hsCRP Median % Change from Baseline (Year 2): −13.9% | hsCRP Median Absolute Change from Baseline (Year 2): -0.2 mg/L | hsCRP Median Observed Value (Year 2): 1.8 mg/L | Apo B Between Group Difference Median % Change from Baseline (Year 2, vs placebo): −9.7% | Apo B Between Group Difference Median Absolute Change from Baseline (Year 2, vs placebo): -8.0 mg/dL | HDL-C Between Group Difference Median % Change from Baseline (Year 2, vs placebo): −4.6% | HDL-C Between Group Difference Median Absolute Change from Baseline (Year 2, vs placebo): -2.0 mg/dL | LDL-C Hopkins Between Group Difference Median % Change from Baseline (Year 2, vs placebo): −11.1% | LDL-C Hopkins Between Group Difference Median Absolute Change from Baseline (Year 2, vs placebo): -9.4 mg/dL | Log hsCRP Between Group Difference Median % Change from Baseline (Year 2, vs placebo): −22.5% | Log hsCRP Between Group Difference Median Absolute Change from Baseline (Year 2, vs placebo): −0.4 mg/L | Non-HDL-C Between Group Difference Median % Change from Baseline (Year 2, vs placebo): −12.5% | Non-HDL-C Between Group Difference Median Absolute Change from Baseline (Year 2, vs placebo): -14.5 mg/dL | Triglycerides Between Group Difference Median % Change from Baseline (Year 2, vs placebo): −19.7% | Triglycerides Between Group Difference Median Absolute Change from Baseline (Year 2, vs placebo): -43.8 mg/dL | hsCRP Between Group Difference Median % Change from Baseline (Year 2, vs placebo): −39.9% | hsCRP Between Group Difference Median Absolute Change from Baseline (Year 2, vs placebo): -0.9 mg/L | HDL-C Median % Change from Baseline (Year 3): 0.0% | HDL-C Median Absolute Change from Baseline (Year 3): 0.0 mg/dL | HDL-C Median Observed Value (Year 3): 40.0 mg/dL | LDL-C Hopkins Median % Change from Baseline (Year 3): −1.2% | LDL-C Hopkins Median Absolute Change from Baseline (Year 3): -1.0 mg/dL | LDL-C Hopkins Median Observed Value (Year 3): 84.6 mg/dL | Non-HDL-C Median % Change from Baseline (Year 3): −4.2% | Non-HDL-C Median Absolute Change from Baseline (Year 3): -4.8 mg/dL | Non-HDL-C Median Observed Value (Year 3): 112.0 mg/dL | Triglycerides Median % Change from Baseline (Year 3): −21.7% | Triglycerides Median Absolute Change from Baseline (Year 3): -44.0 mg/dL | Triglycerides Median Observed Value (Year 3): 167.0 mg/dL | HDL-C Between Group Difference Median % Change from Baseline (Year 3, vs placebo): −3.8% | HDL-C Between Group Difference Median Absolute Change from Baseline (Year 3, vs placebo): -1.5 mg/dL | LDL-C Hopkins Between Group Difference Median % Change from Baseline (Year 3, vs placebo): −10.4% | LDL-C Hopkins Between Group Difference Median Absolute Change from Baseline (Year 3, vs placebo): -8.7 mg/dL | Non-HDL-C Between Group Difference Median % Change from Baseline (Year 3, vs placebo): −12.4% | Non-HDL-C Between Group Difference Median Absolute Change from Baseline (Year 3, vs placebo): -14.5 mg/dL | Triglycerides Between Group Difference Median % Change from Baseline (Year 3, vs placebo): −20.3% | Triglycerides Between Group Difference Median Absolute Change from Baseline (Year 3, vs placebo): -45.5 mg/dL | HDL-C Median % Change from Baseline (Year 4): 1.0% | HDL-C Median Absolute Change from Baseline (Year 4): 0.5 mg/dL | HDL-C Median Observed Value (Year 4): 40.5 mg/dL | LDL-C Hopkins Median % Change from Baseline (Year 4): −0.6% | LDL-C Hopkins Median Absolute Change from Baseline (Year 4): -0.5 mg/dL | LDL-C Hopkins Median Observed Value (Year 4): 83.6 mg/dL | Non-HDL-C Median % Change from Baseline (Year 4): −4.2% | Non-HDL-C Median Absolute Change from Baseline (Year 4): -5.0 mg/dL | Non-HDL-C Median Observed Value (Year 4): 110.5 mg/dL | Triglycerides Median % Change from Baseline (Year 4): −21.7% | Triglycerides Median Absolute Change from Baseline (Year 4): -42.5 mg/dL | Triglycerides Median Observed Value (Year 4): 163.0 mg/dL | HDL-C Between Group Difference Median % Change from Baseline (Year 4, vs placebo): −3.9% | HDL-C Between Group Difference Median Absolute Change from Baseline (Year 4, vs placebo): -1.5 mg/dL | LDL-C Hopkins Between Group Difference Median % Change from Baseline (Year 4, vs placebo): −10.6% | LDL-C Hopkins Between Group Difference Median Absolute Change from Baseline (Year 4, vs placebo): -8.9 mg/dL | Non-HDL-C Between Group Difference Median % Change from Baseline (Year 4, vs placebo): −12.0% | Non-HDL-C Between Group Difference Median Absolute Change from Baseline (Year 4, vs placebo): -14.0 mg/dL | Triglycerides Between Group Difference Median % Change from Baseline (Year 4, vs placebo): −17.4% | Triglycerides Between Group Difference Median Absolute Change from Baseline (Year 4, vs placebo): -38.0 mg/dL | HDL-C Median % Change from Baseline (Year 5): 0.0% | HDL-C Median Absolute Change from Baseline (Year 5): 0.0 mg/dL | HDL-C Median Observed Value (Year 5): 41.0 mg/dL | LDL-C Hopkins Median % Change from Baseline (Year 5): −0.7% | LDL-C Hopkins Median Absolute Change from Baseline (Year 5): -0.8 mg/dL | LDL-C Hopkins Median Observed Value (Year 5): 82.2 mg/dL | Non-HDL-C Median % Change from Baseline (Year 5): −4.4% | Non-HDL-C Median Absolute Change from Baseline (Year 5): -5.0 mg/dL | Non-HDL-C Median Observed Value (Year 5): 109.0 mg/dL | Triglycerides Median % Change from Baseline (Year 5): −20.0% | Triglycerides Median Absolute Change from Baseline (Year 5): -38.0 mg/dL | Triglycerides Median Observed Value (Year 5): 158.0 mg/dL | HDL-C Between Group Difference Median % Change from Baseline (Year 5, vs placebo): −3.0% | HDL-C Between Group Difference Median Absolute Change from Baseline (Year 5, vs placebo): -1.5 mg/dL | LDL-C Hopkins Between Group Difference Median % Change from Baseline (Year 5, vs placebo): −8.0% | LDL-C Hopkins Between Group Difference Median Absolute Change from Baseline (Year 5, vs placebo): -6.6 mg/dL | Non-HDL-C Between Group Difference Median % Change from Baseline (Year 5, vs placebo): −9.9% | Non-HDL-C Between Group Difference Median Absolute Change from Baseline (Year 5, vs placebo): -11.0 mg/dL | Triglycerides Between Group Difference Median % Change from Baseline (Year 5, vs placebo): −16.7% | Triglycerides Between Group Difference Median Absolute Change from Baseline (Year 5, vs placebo): -33.5 mg/dL | reduction in hsCRP (in vivo): 40%
